From US12233047B2, “Pharmaceutical combination and use thereof” (ASCENTAGE PHARMA (SUZHOU) CO., LTD., priority 2019, dated 2025)

Biological target: T1, FLT3 (N841I) (Homo sapiens, UniProt P36888, N841I)
T1 construct: host or cells: T7 phage in E. coli (BL21-derived) or HEK-293
T1 sequence (P36888 27-993 N841I): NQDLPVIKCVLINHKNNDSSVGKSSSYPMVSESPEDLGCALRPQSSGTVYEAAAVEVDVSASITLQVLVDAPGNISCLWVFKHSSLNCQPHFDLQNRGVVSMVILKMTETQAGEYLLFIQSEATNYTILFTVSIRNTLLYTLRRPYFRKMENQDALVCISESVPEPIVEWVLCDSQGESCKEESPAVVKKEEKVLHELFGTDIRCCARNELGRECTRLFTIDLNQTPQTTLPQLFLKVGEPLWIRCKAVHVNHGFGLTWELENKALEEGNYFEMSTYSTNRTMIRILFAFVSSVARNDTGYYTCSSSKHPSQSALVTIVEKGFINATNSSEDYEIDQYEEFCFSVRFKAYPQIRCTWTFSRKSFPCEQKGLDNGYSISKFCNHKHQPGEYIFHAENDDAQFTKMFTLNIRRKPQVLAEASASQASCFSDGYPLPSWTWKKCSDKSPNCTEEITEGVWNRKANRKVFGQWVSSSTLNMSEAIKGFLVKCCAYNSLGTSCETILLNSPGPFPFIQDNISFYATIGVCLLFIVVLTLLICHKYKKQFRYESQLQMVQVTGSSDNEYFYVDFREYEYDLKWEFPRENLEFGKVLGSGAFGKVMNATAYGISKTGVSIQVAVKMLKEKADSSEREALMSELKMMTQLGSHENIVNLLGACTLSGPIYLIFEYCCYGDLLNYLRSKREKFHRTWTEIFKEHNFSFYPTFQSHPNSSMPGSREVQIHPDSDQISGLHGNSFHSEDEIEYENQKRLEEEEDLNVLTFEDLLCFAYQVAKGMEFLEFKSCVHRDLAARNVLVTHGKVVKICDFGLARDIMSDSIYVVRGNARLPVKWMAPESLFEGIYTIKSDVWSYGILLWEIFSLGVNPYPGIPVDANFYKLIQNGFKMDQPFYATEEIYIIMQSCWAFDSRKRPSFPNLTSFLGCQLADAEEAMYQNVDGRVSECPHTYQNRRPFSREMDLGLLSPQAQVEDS
Assay: KINOMEscan kinase binding assay, FLT3 (N841I)
Procedure: The kinase assay was conducted using KINOMEscan™.
Kinase-tagged T7 phage strains were grown in parallel in 24-well blocks in an E. coli host derived from the BL21 strain. E. coli were grown to log-phase and infected with T7 phage from a frozen stock (multiplicity of infection=0.4) and incubated with shaking at 32° C. until lysis (90-150 minutes). The lysates were centrifuged (6,000×g) and filtered (0.2 μm) to remove cell debris. The remaining kinases were produced in HEK-293 cells and subsequently tagged with DNA for qPCR detection. Streptavidin-coated magnetic beads were treated with biotinylated small molecule ligands for 30 minutes at room temperature to generate affinity resins for kinase assays. The liganded beads were blocked with excess biotin and washed with blocking buffer (SeaBlock (Pierce), 1% BSA, 0.05% Tween 20, 1 mM DTT) to remove unbound ligand and to reduce non-specific phage binding. Binding reactions were assembled by combining kinases, liganded affinity beads, and test compound (Compound 23) in 1× binding buffer (20% SeaBlock, 0.17×PBS, 0.05% Tween 20, 6 mM DTT). Test compound were prepared as 40× stocks in 100% DMSO and directly diluted into the assay. All reactions were performed in polypropylene 384-well plates in a final volume of 0.04 ml. […] The kinase concentration in the eluates was measured by qPCR. […]

For `Cc1ccc(C(=O)Nc2ccc(CN3CCN(C)CC3)c(C(F)(F)F)c2)cc1C#Cc1cnc2[nH]ncc2c1` [Compound 23, 3-(2-(1H-pyrazolo[3,4-b]pyridin-5-yl)ethynyl)-4-methyl-N-(4-((4-methylpiperazin-1-yl)methyl)-3-(trifluoromethyl)phenyl)benzamide], the “% Ctrl@10 nM” value (10 nM) was 2.9 % Ctrl and the “% Ctrl@100 nM” value (100 nM) was 0.05 % Ctrl.
